Measurements from patent US20190233906A1, “MUTANT STRAINS OF STAPHYLOCOCCUS AUREUS WITH MULTIPLE INACTIVATED TCS SYSTEMS” (priority 2015, published 2019).
Marks after values point to notes of the source that are not given here.

Assays:
[1] = system: ArlR response regulator of the arlRS two-component system of S. aureus MW2
[2] = system: ArlR D52A (non-phosphorylatable ArlR allele)
[3] = system: S. aureus MW2; assay type: cell-based, Staphylococcus aureus; conditions: strain MW2; for Antimicrobial susceptibility (R/S): key: R: resistant; S: susceptible
Method: (§1) Antibiotic sensitivity tests were performed at the University Clinic of Navarra. Antibiotics routinely used in clinic for treatment of S. aureus infections were tested by VITEK 2 system. • Growth Kinetics Analysis

[4] = system: S. aureus 8325; assay type: cell-based, Staphylococcus aureus; conditions: strain 8325; for Antimicrobial susceptibility (R/S): key: R: resistant; S: susceptible
Method: as §1

[5] = system: S. aureus MW2 ΔXV; test: Antimicrobial susceptibility test (VITEK 2 system); assay type: cell-based, Staphylococcus aureus; for Antimicrobial susceptibility (R/S): key: R: resistant; S: susceptible
Method: as §1

[6] = system: S. aureus 8325 ΔXV; test: Antimicrobial susceptibility test (VITEK 2 system); assay type: cell-based, Staphylococcus aureus; for Antimicrobial susceptibility (R/S): key: R: resistant; S: susceptible
Method: as §1

[7] = system: arlR-dependent protein A; test: Protein A expression by Western blotting on stimulation of GraS; assay type: cell-based, Staphylococcus aureus; conditions: 50 μg of colistin
Method: Overnight cultures of the strains were diluted in TSB-gluc to an OD650nm=0.1 and 50 μl of the diluted cultures were mixed with 1950 μl of chemically defined medium HHWm (Hussain-Hastings-White modified medium) (Toledo-Arana et al., 2005) to inoculate sterile 24-well polystyrene microtitre plates (Costar). Plates were incubated at 37° C. for 24 hours, trying to mimic biofilm forming conditions. […] of bacterial cultures were centrifuged and pellets were resuspended in 60 μl PBS. Then, 2 μl of Lysostaphin 1 mg/ml (Sigma) and 3 μl of DNase I 1 mg/ml (Sigma) were added. After 2 h of incubation at 37° C. cell lysates were centrifuged and supernatants were collected. Protein concentration was determined with the Bio-Rad protein assay (Bio-Rad). Samples were adjusted to 3-5 μg of total protein and one volume of Laemmli buffer was added. Total protein extracts were denatured by boiling at 100° C. for 5 min. Proteins were separated on 10% SDS-polyacrylamide gels and stained with 0.25% Coomassie brilliant blue R250 (Sigma) as loading controls. For Western blotting, proteins were transferred onto Hybond-ECL nitrocellulose membranes (Amersham Biosciences) by semi-dry electroblotting. […] Protein A was detected with the SuperSignal West Pico Chemiluminescent Substrate (Thermo Scientific). • Construction of the Bap-Snap-ClfA Quimeric Protein and Expression in S. aureus ΔXVI

GraS histidine kinase of the graXRS two-component system of S. aureus MW2
Protein A expression by Western blotting in ΔXV strain complemented with arlR plus one HK [1]: In addition to ArlS itself, GraS is able to restore protein A expression in ΔXV strain
Protein A expression by Western blotting in ΔXV strain [2]: substitution of ArlR wild type by the non-phosphorylatable ArlRD52A allele suppresses the cross-talk
Protein A expression by Western blotting with 50 µg/ml colistin [2]: activation of protein A expression was absent when the ArlR phosphate accepting aspartate was mutated

ArlS H242A (ArlS allele that keeps phosphatase activity but cannot phosphorylate ArlR)
Protein A expression by Western blotting in arlRS mutant [1]: The resulting strain showed a level of expression of protein A similar to that of the strain complemented with ArlR alone

Cc1onc(-c2ccccc2Cl)c1C(=O)N[C@@H]1C(=O)N2[C@@H]1SC(C)(C)[C@@H]2C(=O)O [Cloxacillin]
Antimicrobial susceptibility (R/S) [3]: R
Antimicrobial susceptibility (R/S) [4]: S
Antimicrobial susceptibility (R/S) ([5]; strain MW2 ΔXV): R
Antimicrobial susceptibility (R/S) ([6]; strain 8325 ΔXV): S

CO[C@H]1/C=C/O[C@@]2(C)Oc3c(C)c(O)c4c(O)c(c(/C=N/N5CCN(C)CC5)c(O)c4c3C2=O)NC(=O)/C(C)=C\C=C\[C@H](C)[C@H](O)[C@@H](C)[C@@H](O)[C@@H](C)[C@H](OC(C)=O)[C@@H]1C [Rifampicin]
Antimicrobial susceptibility (R/S) [3]: S
Antimicrobial susceptibility (R/S) [4]: S
Antimicrobial susceptibility (R/S) ([5]; strain MW2 ΔXV): S
Antimicrobial susceptibility (R/S) ([6]; strain 8325 ΔXV): S

CN(C)c1cc(NC(=O)CNC(C)(C)C)c(O)c2c1C[C@H]1C[C@H]3[C@H](N(C)C)C(O)=C(C(N)=O)C(=O)[C@@]3(O)C(O)=C1C2=O [Tigecycline]
Antimicrobial susceptibility (R/S) [3]: S
Antimicrobial susceptibility (R/S) [4]: S
Antimicrobial susceptibility (R/S) ([5]; strain MW2 ΔXV): S
Antimicrobial susceptibility (R/S) ([6]; strain 8325 ΔXV): S

CO/N=C(\C(=O)N[C@@H]1C(=O)N2C(C(=O)O)=C(COC(N)=O)CS[C@H]12)c1ccco1 [Cefuroxime]
Antimicrobial susceptibility (R/S) [3]: R
Antimicrobial susceptibility (R/S) [4]: S
Antimicrobial susceptibility (R/S) ([5]; strain MW2 ΔXV): R
Antimicrobial susceptibility (R/S) ([6]; strain 8325 ΔXV): S

ArlS histidine kinase of the arlRS two-component system of S. aureus MW2
Protein A expression by Western blotting [1]: They first confirmed that phosphorylation of ArlR by ArlS was necessary to induce protein A expression
Protein A expression by Western blotting in ΔXV strain complemented with arlR plus one HK [1]: In addition to ArlS itself, GraS is able to restore protein A expression in ΔXV strain

colistin
Expression of protein A ([7]; arlRS graSR double mutant): but not in arlRS graSR double mutant
Expression of protein A ([7]; wild type and single arlRS mutant): activation of the expression of protein A was observed

CC(=O)OCC1=C(C(=O)O)N2C(=O)[C@@H](NC(=O)Cc3cccs3)[C@H]2SC1 [Cefalotin]
Antimicrobial susceptibility (R/S) [3]: R
Antimicrobial susceptibility (R/S) [4]: S
Antimicrobial susceptibility (R/S) ([5]; strain MW2 ΔXV): R
Antimicrobial susceptibility (R/S) ([6]; strain 8325 ΔXV): S

Quinuspristin/Dalfopristin
Antimicrobial susceptibility (R/S) [3]: S
Antimicrobial susceptibility (R/S) [4]: S
Antimicrobial susceptibility (R/S) ([5]; strain MW2 ΔXV): S
Antimicrobial susceptibility (R/S) ([6]; strain 8325 ΔXV): S

CC1(C)S[C@@H]2[C@H](NC(=O)Cc3ccccc3)C(=O)N2[C@H]1C(=O)O [Bencilpenicillin]
Antimicrobial susceptibility (R/S) [3]: R
Antimicrobial susceptibility (R/S) [4]: R
MIC, Minimal inhibitory concentration [4]: (0.25)
Antimicrobial susceptibility (R/S) ([5]; strain MW2 ΔXV): R
Susceptibility of 8325 ΔXV mutant compared with parental strain ([6]; 8325 ΔXV vs 8325): higher susceptibility
Antimicrobial susceptibility (R/S) ([6]; strain 8325 ΔXV): S
MIC, Minimal inhibitory concentration ([6]; strain 8325 ΔXV): (0.12)

histidine kinase of the srrAB two-component system of S. aureus MW2 (SrrB by Table 1; printed 'SrrA' in the sentence)
Protein A expression in ΔXV strain complemented with arlR plus one HK [1]: mainly GraS and to a lower level SrrA were able to activate ArlR

Gentamicin
Antimicrobial susceptibility (R/S) [3]: S
Antimicrobial susceptibility (R/S) [4]: S
Antimicrobial susceptibility (R/S) ([5]; strain MW2 ΔXV): S
Antimicrobial susceptibility (R/S) ([6]; strain 8325 ΔXV): S

Cc1onc(-c2ccccc2)c1C(=O)N[C@@H]1C(=O)N2[C@@H]1SC(C)(C)[C@@H]2C(=O)O [Oxacillin]
Antimicrobial susceptibility (R/S) [3]: R
MIC, Minimal inhibitory concentration [3]: (≥4)^a
Antimicrobial susceptibility (R/S) [4]: S
Susceptibility of MW2 ΔXV mutant compared with parental strain ([5]; MW2 ΔXV vs MW2): more susceptible
Antimicrobial susceptibility (R/S) ([5]; strain MW2 ΔXV): R
MIC, Minimal inhibitory concentration ([5]; strain MW2 ΔXV): (2)^a
Antimicrobial susceptibility (R/S) ([6]; strain 8325 ΔXV): S
